Measured values as given in patent US11590156B2, “RNAi agents for hepatitis B virus infection” (Arrowhead Pharmaceuticals, Inc., priority 2016, dated 2023).

Assays:
[1] = system: HBV genotype C; serum HBV DNA; test: Serum HBV DNA levels in HBV-infected humanized FRG model mice; format: in vivo, FRG mice transplanted with human hepatocytes; conditions: for Serum HBV DNA levels normalized to the average of pre-treatment day −10 and day −3: PBS (no RNAi agent), oral daily gavage 0.01 mg/kg Entecavir from day 1
Experimental: iv) Serum HBV DNA levels: Equal volumes of serum from mice in a group or subgroup were pooled to a final volume of 100 μL. DNA was isolated from serum samples using the QIAamp MinElute Virus Spin Kit (Qiagen, Valencia, Calif.) following the manufacturer's instructions. Sterile 0.9% saline was added to each sample to a final volume of 200 μL. Serum samples were added to tubes containing buffer and protease. Carrier RNA was added to aid in the isolation of small amounts of DNA. […] After incubating 15 min at 56° C., nucleic acids were precipitated from the lysates with ethanol and the entire solution applied to a column. After washing, the samples were eluted into a volume of 50 μL Buffer AVE.
The number of copies of HBV genomes in DNA isolated from the pHBV mouse model serum was determined by qPCR. Plasmid pSEAP-HBV353-777, encoding a short segment of the HBV genome within the S gene (bases 353-777 of GenBank accession #V01460), was used to create a six log standard curve. Samples with recovery of DNA below 2 standard deviations from the average, based on detection of pHCR/UbC-SEAP were omitted. TaqMan chemistry-based primers and probes with fluor/ZEN/IBFQ are utilized.
qPCR assays were performed on a 7500 Fast or StepOne Plus Real-Time PCR system (Life Technologies). For evaluation of HBV DNA in serum, DNA was isolated from singlet or duplicate purification steps from pooled group serum samples. Quantitations of HBV DNA and recovery control plasmid were determined by qPCR reactions performed in triplicate. The probes to quantitate HBV and pHCR/UbC-SEAP were included in each reaction.
For this study, Male FRG® (genotype Fah −/−/Rag2−/−/Il2rg −/− triple knockout mice on a C57BL/6 background (Yecuris) were transplanted with human hepatocytes when they were 1-2 months old. The human hepatocytes were allowed to repopulate the liver for approximately 6 months with periodic NTBC treatment to discourage growth of mouse hepatocytes. At 9 months of age the mice were given an intravenous inoculation of 4×10^8 genomes/kg HBV genotype C, which infected the human hepatocytes. After 2-3 months, serum HBV DNA levels reached a plateau indicating the human hepatocytes were maximally infected (mouse hepatocytes cannot be infected by HBV). Mice were one year old at the start of treatment with HBV RNAi agents, thus nearing the end of their life span.
Pre-treatment serum samples were taken on day −10 and day −3. Beginning on day 1, each mouse was administered an oral daily gavage with 0.01 mg/kg Entecavir dissolved in water to inhibit HBV replication. Daily dosing of Entecavir continued until the day mice were euthanized. Entecavir administration was expected to reduce serum HBV DNA in chronically infected human patients, but not reduce HBsAg.
Each mouse was also given a subcutaneous administration of 100 μl per 20 grams body weight containing the amount of HBV RNAi agent(s) formulated in phosphate buffered saline, or an equal volume of phosphate buffered saline without an HBV RNAi agent, on day 1 and on day 29 (if still alive on day 29), pursuant to the schedule as set forth in Table 47, directly above. […] The injections were performed between the skin and muscle (i.e. subcutaneous injections) into the loose skin over the neck and shoulder area.
Additionally, serum HBV DNA levels were determined from serum samples collected on days −10, −3, 8, 15, 22, 29, 36, and 40, pursuant to the procedure set forth in Example 2, above.

[2] = system: HBV genotype C; serum HBsAg; test: Serum HBsAg levels in HBV-infected humanized FRG model mice; format: in vivo, FRG mice transplanted with human hepatocytes; conditions: mouse A-1; PBS (no RNAi agent); oral daily gavage 0.01 mg/kg Entecavir from day 1; Day 8
Experimental: ii) Serum Hepatitis B surface antigen (HBsAg) levels: Serum was collected and diluted 10 to 8000-fold in PBS containing 5% nonfat dry milk. Secondary HBsAg standards diluted in the nonfat milk solution were prepared from serum of ICR mice (Harlan Sprague Dawley) that had been transfected with 10 μg HBsAg-expressing plasmid pRc/CMV-HBs (Aldevron, Fargo, N. Dak.). HBsAg levels were determined with a GS HBsAg EIA 3.0 kit (Bio-Rad Laboratories, Inc., Redmond, Wash.) as described by the manufacturer. Recombinant HBsAg protein, ayw subtype, also diluted in nonfat milk in PBS, was used as a primary standard (Aldevron). […]
Serum was collected on day 8, day 15, day 22, day 29, day 36, and day 40 and serum Hepatitis B surface antigen (HBsAg) levels were determined pursuant to the procedure set forth in Example 2, above.

With `C=C1[C@H](CO)[C@@H](O)C[C@@H]1n1cnc2c(=O)[nH]c(N)nc21` [Entecavir] the “viral replication (serum HBV DNA)” value ([1]; Example 18, 0.01 mg/kg Entecavir oral daily gavage) was “reduced viral replication in both the absence and presence of HBV RNAi agents”, the “Serum HBV DNA levels normalized to the average of pre-treatment day −10 and day −3” value (from here on “Serum HBV DNA levels normalized”) ([1]; mouse A-1, Day 8) was 0.072 and the “Serum HBV DNA levels normalized” value ([1]; mouse A-1, Day 15) was 0.038. The “Serum HBV DNA levels normalized” value ([1]; mouse A-1, Day 22) was 0.015, the “Serum HBV DNA levels normalized” value ([1]; mouse A-1, Day 29) was 0.027 and the “Serum HBV DNA levels normalized” value ([1]; mouse A-1, Day 36) was 0.060. The “Serum HBV DNA levels normalized” value ([1]; mouse A-2, Day 8) was 0.130, the “Serum HBV DNA levels normalized” value ([1]; mouse A-2, Day 15) was 0.075 and the “Average HBsAg levels normalized to pre-treatment (day −3)” value [2] was 0.830.
